Patent publication US20260207600A1, “METHODS OF TREATMENT WITH MYOSIN MODULATOR” (MYOKARDIA, INC., priority 2019, published 2026)

Tested on: subjects with symptomatic non-obstructive hypertrophic cardiomyopathy (nHCM)
Assay: […]-HCM Phase 2 randomized, double-blind, placebo-controlled, concentration-guided study
Type: in vivo, human
Set-up: Overall KCCQ Summary Score / Clinical KCCQ Summary Score / Change in Overall KCCQ Summary Score, Mean / Change in Clinical KCCQ Summary Score, Mean / Change from Baseline in Overall KCCQ Summary Score, Mean / Change from Baseline in Clinical KCCQ Summary Score, Mean: scale not given here
Settings: for Composite functional endpoint Type 1, % / Composite functional endpoint Type 2, % / Met composite functional endpoint, either type, %: Combined Subgroup
Text: This is a Phase 2 trial designed to assess the safety and tolerability of a range of exposures over 16 weeks of treatment in subjects with symptomatic, non-obstructive HCM. All study subjects were required to be diagnosed with non-obstructive HCM, with left ventricular wall thickness either ≥15 mm or ≥13 mm with a family history of HCM, LVEF≥55%, NYHA classifications of Class II or III, and NT-proBNP levels of greater than 300 pg/mL at rest. Baseline characteristics, such as age, weight, gender, pathogenic mutation status, background beta blocker use, NYHA classification and exercise capacity were approximately evenly distributed between active and placebo arms.
This double-blind study enrolled 59 individuals with nHCM (Left ventricular outflow tract gradient<30 mmHg; resting or provoked), NYHA Class II or III, and LVEF≥55%. Subjects were randomized 1:1:1 to one of two target plasma drug concentrations (Group 1: ~200 ng/mL and Group 2: ~ 500 ng/ml) or placebo for 16 weeks, followed by an 8-week washout. […] Predefined criteria, including LVEF (LVEF≤45%), guided study drug discontinuation if indicated. Cardiopulmonary exercise testing was performed at baseline and Week 16 to assess the impact on exercise capacity.
Dose adjustments will be based on PK parameters. Assessments include safety, standardized cardiopulmonary exercise testing (CPET) with measurement of peak oxygen consumption, echocardiography to evaluate left ventricular ejection fraction (LVEF) and parameters of diastolic function, symptoms, quality of life, daily step counts, and NT-proBNP at rest and after exercise. In addition, subjects may consent to hypertrophic cardiomyopathy genotyping and pharmacogenetic sampling.
Cardiac Troponin I levels were evaluated on plasma and serum samples of subjects at baseline and at various time points in the trial (Abbott Architect Stat Troponin-I assay (Ref. 2K41)). Cardiac Troponin T levels were evaluated on plasma and serum samples of subjects at baseline and at various time points in the trial (Roche Elecsys Troponin T hs assay) (Ref. 08469873190) performed on a cobas e 801 analyzer). NT-proBNP levels were evaluated on plasma samples using the Roche Elecsys proBNPII assay (Ref. 07027664190) on a cobas e 801 analyzer.
5 mg QD was used as the starting dose for the study. All subjects in the active treatment groups started on 5 mg QD. […] PK modeling was used to guide blinded dose adjustment at the Week 6 visit, based on the plasma concentrations collected at Week 4. Subjects in the placebo group underwent the same assessments in order to preserve the blind. […] Subjects were instructed to take the drug under fasting conditions, at approximately the same time each day, and with 8 ounces of water.
To achieve the target concentration, if a subject's Week 4 concentration was >450 ng/ml, the subject's dose was decreased to 2.5 mg QD; if Week 4 concentration was 110-450 ng/mL, the dose was maintained at 5 mg QD; and if Week 4 concentration was <110 ng/mL, the dose was increased to 10 mg QD.
Subjects were monitored for adverse events (AE), including high blood plasma concentration, systolic dysfunction, QT prolongation, and LVEF decrease. If any of the following thresholds were hit PK 1000 or more, QTcF 500, or LVEF 45%, the subjects were discontinued on drug. Specifically, high blood plasma concentration was defined as blood plasma concentration greater than or equal to 1000 ng/ml; QT prolongation was defined as QTcF greater than or equal to 500 ms; and LVEF shortening was defined as LVEF less than or equal to 45% (including serious adverse event (SAE) for LVEF less than or equal to 30%).
Efficacy and pharmacodynamics assessments were also made. Resting transthoracic echocardiography measurements were taken at Weeks 4, 8, 12 and 16. Ejection fraction (2-D) and LV frantional shortening were analyzed along with other echocardiographic at baseline measures including measure of diastolic function. […]

[1] = Elevated Troponin subgroup (N = 13), Mean
[2] = Elevated Troponin subgroup, Mean Difference vs Placebo
[3] = ITT, Group 1 ~200 ng/mL (n = 19)
[4] = ITT, Group 2 ~500 ng/mL (n = 21)
[5] = ITT, Week 16, pooled-mavacamten group
[6] = Other subgroup, Mean Difference vs Placebo
[7] = Subgroup with Elevated E/e′ at Baseline, Difference mavacamten vs placebo
[8] = Subgroup with Elevated E/e′ at Baseline, Pooled (n = 14)
[9] = Subgroup with Elevated cTnI at Baseline, Difference mavacamten vs placebo
[10] = Subgroup with Elevated cTnI at Baseline, Pooled (n = 13)
[11] = week 16, pooled-mavacamten group

CC(C)n1c(=O)cc(N[C@@H](C)c2ccccc2)[nH]c1=O [mavacamten, (S)-3-Isopropyl-6-((1-phenylethyl)amino)pyrimidine-2, 4(1H,3H)-dione]
participants with a decrease in LVEF to ≤45% (5 participants among the 40 receiving active treatment, weeks 11-12): 12.5%
Composite functional endpoint Type 1, % (Group 1 ~200 ng/mL (n = 9)): (11.1) %
Composite functional endpoint Type 2, % (Group 1 ~200 ng/mL (n = 9)): (22.2) %
Met composite functional endpoint, either type, % (Group 1 ~200 ng/mL (n = 9)): (33.3) %
Composite functional endpoint Type 1, % (Group 2 ~500 ng/mL (n = 12)): (8.3) %
Composite functional endpoint Type 2, % (Group 2 ~500 ng/mL (n = 12)): (25.0) %
Met composite functional endpoint, either type, % (Group 2 ~500 ng/mL (n = 12)): (33.3) %
Composite functional endpoint Type 1, % (Pooled (n = 21)): (9.5) %
Composite functional endpoint Type 2, % (Pooled (n = 21)): (23.8) %
Met composite functional endpoint, either type, % (Pooled (n = 21)): (33.3) %
Average Daily Accelerometry Unit [1]: 136328
Clinical KCCQ Summary Score [1]: 6.891
NYHA Class [1]: −0.462
Overall KCCQ Summary Score [1]: 6.410
Peak VO2 [1]: 0.0885 L/h/kg
Serum NT-proBNP [1]: -950.462 ng/L
Serum Troponin I [1]: -0.123 ng/mL
Average Daily Accelerometry Unit [2]: 350347
Clinical KCCQ Summary Score [2]: 8.766
NYHA Class [2]: −0.262
Overall KCCQ Summary Score [2]: 1.896
Peak VO2 [2]: 0.1617 L/h/kg
Serum NT-proBNP [2]: -784.062 ng/L
Serum Troponin I [2]: -0.083 ng/mL
participants achieving the composite functional endpoint (ITT, Group 1): 16%
Change in Clinical KCCQ Summary Score, Mean [3]: 0.11
Change in LVEDV, Mean [3]: 1.15 mL
Change in LVEF, Mean [3]: −2.30%
Change in Lateral e′, Mean [3]: 0.34 cm/s
Change in NYHA Class, Mean [3]: −0.6
Change in Overall KCCQ Summary Score, Mean [3]: 0.35
Change in Peak VO2, Mean [3]: 0.0216 L/h/kg
Change in Septal e′, Mean [3]: 0.64 cm/s
NT-proBNP, Geometric mean, percent change [3]: −47.1%
cTnI, Geometric mean, percent change [3]: −23.4%
participants achieving the composite functional endpoint (ITT, Group 2): 29%
Change in Clinical KCCQ Summary Score, Mean [4]: 5.66
Change in LVEDV, Mean [4]: 6.50 mL
Change in LVEF, Mean [4]: −5.61%
Change in Lateral e′, Mean [4]: 1.46 cm/s
Change in NYHA Class, Mean [4]: −0.3
Change in Overall KCCQ Summary Score, Mean [4]: 6.24
Change in Peak VO2, Mean [4]: 0.0072 L/h/kg
Change in Septal e′, Mean [4]: 1.60 cm/s
NT-proBNP, Geometric mean, percent change [4]: −57.9%
cTnI, Geometric mean, percent change [4]: −41.0%
Change in Clinical KCCQ Summary Score, Mean (ITT, Pooled (n = 40)): 3.37
Change in LVEDV, Mean (ITT, Pooled (n = 40)): 4.04 mL
Change in LVEF, Mean (ITT, Pooled (n = 40)): −4.09%
Change in Lateral e′, Mean (ITT, Pooled (n = 40)): 0.94 cm/s
Change in NYHA Class, Mean (ITT, Pooled (n = 40)): −0.4
Change in Overall KCCQ Summary Score, Mean (ITT, Pooled (n = 40)): 3.82
Change in Peak VO2, Mean (ITT, Pooled (n = 40)): 0.0132 L/h/kg
Change in Septal e′, Mean (ITT, Pooled (n = 40)): 1.17 cm/s
NT-proBNP, Geometric mean, percent change (ITT, Pooled (n = 40)): −53.2%
cTnI, Geometric mean, percent change (ITT, Pooled (n = 40)): −34.0%
cTnI geometric mean difference [5]: -0.008 ng/mL
cTnI geometric mean, decrease [5]: 34%
Average Daily Accelerometry Unit (Other subgroup (N = 27), Mean): 82413
Clinical KCCQ Summary Score (Other subgroup (N = 27), Mean): 1.195
NYHA Class (Other subgroup (N = 27), Mean): −0.417
Overall KCCQ Summary Score (Other subgroup (N = 27), Mean): 2.210
Peak VO2 (Other subgroup (N = 27), Mean): -0.0318 L/h/kg
Serum NT-proBNP (Other subgroup (N = 27), Mean): -280.667 ng/L
Serum Troponin I (Other subgroup (N = 27), Mean): -0.003 ng/mL
Average Daily Accelerometry Unit [6]: 293157
Clinical KCCQ Summary Score [6]: −5.964
NYHA Class [6]: 0.122
Overall KCCQ Summary Score [6]: −4.495
Peak VO2 [6]: -0.1084 L/h/kg
Serum NT-proBNP [6]: -178.513 ng/L
Serum Troponin I [6]: -0.004 ng/mL
Change from Baseline in Clinical KCCQ Summary Score, Mean [7]: 4.1
Change from Baseline in LVEDVi, Mean [7]: 3.9 mL/m^2
Change from Baseline in NT-proBNP, Mean [7]: -355 ng/L
Change from Baseline in NYHA Class, Mean [7]: 0.0
Change from Baseline in Overall KCCQ Summary Score, Mean [7]: 0.4
Change from Baseline in Peak VO2, Mean [7]: 0.114 L/h/kg
Change from Baseline in cTnI, Mean [7]: -0.07 ng/mL
Change from Baseline in Clinical KCCQ Summary Score, Mean [8]: 4.6
Change from Baseline in LVEDVi, Mean [8]: 2.8 mL/m^2
Change from Baseline in NT-proBNP, Mean [8]: -656 ng/L
Change from Baseline in NYHA Class, Mean [8]: −0.4
Change from Baseline in Overall KCCQ Summary Score, Mean [8]: 4.7
Change from Baseline in Peak VO2, Mean [8]: 0.072 L/h/kg
Change from Baseline in cTnI, Mean [8]: -0.09 ng/mL
Change from Baseline in Clinical KCCQ Summary Score, Mean [9]: 8.8
Change from Baseline in LVEDVi, Mean [9]: 0.042 mL/m^2
Change from Baseline in NT-proBNP, Mean [9]: -784 ng/L
Change from Baseline in NYHA Class, Mean [9]: −0.3
Change from Baseline in Overall KCCQ Summary Score, Mean [9]: 1.9
Change from Baseline in Peak VO2, Mean [9]: 0.162 L/h/kg
Change from Baseline in cTnI, Mean [9]: -0.083 ng/mL
Change from Baseline in Clinical KCCQ Summary Score, Mean [10]: 6.9
Change from Baseline in LVEDVi, Mean [10]: 0.79 mL/m^2
Change from Baseline in NT-proBNP, Mean [10]: -951 ng/L
Change from Baseline in NYHA Class, Mean [10]: −0.5
Change from Baseline in Overall KCCQ Summary Score, Mean [10]: 6.4
Change from Baseline in Peak VO2, Mean [10]: 0.0882 L/h/kg
Change from Baseline in cTnI, Mean [10]: -0.12 ng/mL
subjects with transient ejection fraction reductions below the protocol-defined threshold of 45% (active drug arms): five
participants achieving the composite functional endpoint (combined subgroup (elevated cTnI or E/e′average >14 at baseline), mavacamten-treated): 33%
study subjects in whom cTnI levels remained unchanged (elevated cTnI subgroup, week 16 (2 of 13)): 15.4%
study subjects in whom cTnI levels decreased (elevated cTnI subgroup, week 16 vs baseline (11 of 13)): 84.6%
Serious adverse events (SAEs), frequency in subjects (subjects receiving mavacamten, placebo arm 21%): 10%
percentage change in cardiac troponin I from baseline (treated individuals): 30-80%
NT-proBNP geometric mean, decrease (week 16, Group 1): 47%
NT-proBNP geometric mean, decrease (week 16, Group 2): 58%
NT-proBNP geometric mean difference [11]: -435 pg/mL
NT-proBNP geometric mean, decrease [11]: 53%
